In US8802673B2, “Heterocyclic amine derivatives” (Hoffmann-La Roche Inc, priority 2011, dated 2014) one finds Ki data, which are given here for 26 compounds.

Where a name gives a salt, the structure may show the parent alone.

One test deals with mouse TAAR1 (Mus musculus (Mouse), UniProt Q923Y8). In words: Radioligand binding assay on mouse TAAR1. The note with it: mouse TAAR1 (first value of the cell), HEK-293 membranes; read-out: Ki (μM) mouse/rat. As for the experimental part:
(§1) Construction of TAAR Expression Plasmids and Stably Transfected Cell Lines
(§2) For the construction of expression plasmids the coding sequences of human, rat and mouse TAAR 1 were amplified from genomic DNA essentially as described by Lindemann et al.. The Expand High Fidelity PCR System (Roche Diagnostics) was used with 1.5 mM Mg^2+ and purified PCR products were cloned into pCR2.1-TOPO cloning vector (Invitrogen) following the instructions of the manufacturer. PCR products were subcloned into the pIRESneo2 vector (BD Clontech, Palo Alto, Calif.), and expression vectors were sequence verified before introduction in cell lines.
(§3) HEK293 cells (ATCC #CRL-1573) were cultured essentially as described by Lindemann et al. (2005). For the generation of stably transfected cell lines HEK293 cells were transfected with the pIRESneo2 expression plasmids containing the TAAR coding sequences (described above) with Lipofectamine 2000 (Invitrogen) according to the instructions of the manufacturer, and 24 hrs post transfection the culture medium was supplemented with 1 mg/ml G418 (Sigma, Buchs, Switzerland). After a culture period of about 10 d clones were isolated, expanded and tested for responsiveness to trace amines (all compounds purchased from Sigma) with the cAMP Biotrak Enzyme immunoassay (EIA) System (Amersham) following the non-acetylation EIA procedure provided by the manufacturer.
Radioligand Binding Assay on Mouse TAAR1
Membrane Preparation and Radioligand Binding.
(§4) HEK-293 cells stably expressing mouse TAAR1 were maintained at 37° C. and 5% CO2 in DMEM high glucose medium, containing fetal calf serum (10%, heat inactivated for 30 min at 56° C.), penicillin/streptomycin (1%), and 375 μg/ml geneticin (Gibco). Cells were released from culture flasks using trypsin/EDTA, harvested, washed twice with ice-cold PBS (without Ca^2+ and Mg^2+), pelleted at 1,000 rpm for 5 min at 4° C., frozen and stored at −80° C. Frozen pellets were suspended in 20 ml HEPES-NaOH (20 mM, pH 7.4) containing 10 mM EDTA and homogenized with a Polytron (PT 6000, Kinematica) at 14,000 rpm for 20 s. The homogenate was centrifuged at 48,000×g for 30 min at 4° C. Subsequently, the supernatant was removed and discarded, and the pellet resuspended in 20 ml HEPES-NaOH (20 mM, pH 7.4) containing 0.1 mM EDTA using the Polytron (20 s at 14,000 rpm). This procedure was repeated and the final pellet resuspended in HEPES-NaOH containing 0.1 mM EDTA and homogenized using the Polytron. Typically, aliquots of 2 ml membrane portions were stored at −80° C. With each new membrane batch the dissociation constant (Kd) was determined via a saturation curve. […] All compounds were tested at a broad range of concentrations (10 pM to 10 μM) in duplicates. […] The 96 deep well plates were incubated for 1 hr at 4° C. Incubations were terminated by rapid filtration through Unifilter-96 plates (Packard Instrument Company) and glass filters GF/C (Perkin Elmer) presoaked for 1 hr in polyethylenimine (0.3%) and washed 3 times with 1 ml of cold binding buffer. After addition of 45 μl of Microscint 40 (PerkinElmer) the Unifilter-96 plate was sealed and after 1 hr the ratioactivity counted using a TopCount Microplate Scintillation Counter (Packard Instrument Company).

The target of another test is rat TAAR1 (Rattus norvegicus (Rat), UniProt Q923Y9). In words: Radioligand binding assay on rat TAAR1. The note with it: rat TAAR1 (second value of the cell), HEK-293 membranes; read-out: Ki (μM) mouse/rat. On the procedure: as §1, §2, §3
Radioligand Binding Assay on Rat TAAR1
Membrane Preparation and Radioligand Binding
as §4, with “rat” for “mouse”

Chain of mouse TAAR1 (Q923Y8 whole entry): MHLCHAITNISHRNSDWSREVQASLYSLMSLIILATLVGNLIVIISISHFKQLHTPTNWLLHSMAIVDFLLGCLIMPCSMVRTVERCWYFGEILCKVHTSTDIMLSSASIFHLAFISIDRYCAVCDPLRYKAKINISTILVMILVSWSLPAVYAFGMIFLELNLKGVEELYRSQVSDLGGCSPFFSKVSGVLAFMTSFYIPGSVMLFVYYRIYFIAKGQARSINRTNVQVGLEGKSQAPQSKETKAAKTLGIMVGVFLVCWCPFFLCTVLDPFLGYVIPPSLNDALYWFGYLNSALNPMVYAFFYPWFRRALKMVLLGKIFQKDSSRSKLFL
Chain of rat TAAR1 (Q923Y9 whole entry): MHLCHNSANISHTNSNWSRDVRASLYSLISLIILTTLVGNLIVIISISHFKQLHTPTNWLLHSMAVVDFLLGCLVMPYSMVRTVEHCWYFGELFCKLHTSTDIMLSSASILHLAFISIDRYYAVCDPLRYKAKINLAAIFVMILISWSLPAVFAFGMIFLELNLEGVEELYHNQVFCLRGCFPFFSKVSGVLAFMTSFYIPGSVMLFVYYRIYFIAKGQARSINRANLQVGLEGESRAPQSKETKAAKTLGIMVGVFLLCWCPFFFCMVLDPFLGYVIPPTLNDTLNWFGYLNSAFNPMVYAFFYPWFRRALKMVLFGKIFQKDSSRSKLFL

As to `CC(Nc1ccc([C@H]2CNCCO2)cc1)c1ccc(Cl)cc1` (mixture of isomers) [Example 70, [(RS)-1-(4-Chloro-phenyl)-ethyl]-((S)-4-morpholin-2-yl-phenyl)-amine], the Ki on mouse TAAR1 is 0.523 µM; at rat TAAR1, 4.07 µM.
The like results for `Cc1cc(C)nc(Nc2ccc(C3CCNC3)cc2)n1` (racemic) [Example 1, (RS)-(4,6-Dimethyl-pyrimidin-2-yl)-(4-pyrrolidin-3-yl-phenyl)-amine; hydrochloride] were, in that order, 0.074 µM and 1.51 µM.
The like results for `FC(F)(F)C(Nc1ccc(CCC2CCCNC2)cc1)c1ccc(Cl)cc1` (racemic) [Example 4, (RS)-[1-(4-Chloro-phenyl)-2,2,2-trifluoro-ethyl]-[(RS)-4-(2-piperidin-3-yl-ethyl)-phenyl]-amine] were, in that order, 0.122 µM and 0.0785 µM.
Take `Clc1ccc(Nc2ccc(C3CNCCO3)cc2)nc1` (racemic) [Example 5, (RS)-(5-Chloro-pyridin-2-yl)-(4-morpholin-2-yl-phenyl)-amine]: the Ki at mouse TAAR1 amounted to 0.0011 µM; on rat TAAR1, 0.029 µM.
The like results for `Clc1cnc(Nc2ccc(C3CNCCO3)cc2)nc1` (racemic) [Example 6, (RS)-(5-Chloro-pyrimidin-2-yl)-(4-morpholin-2-yl-phenyl)-amine] were, in that order, 0.0133 µM and 0.232 µM.
The like results for `Clc1ccc(Nc2ccc(C3CNCCO3)cc2)cc1` (racemic) [Example 8, (RS)-(4-Chloro-phenyl)-(4-morpholin-2-yl-phenyl)-amine] were, in that order, 0.0005 µM and 0.0325 µM.
The like results for `Clc1ccc(CNc2ccc(C3CNCCO3)cc2)cc1` (racemic) [Example 9, (RS)-(4-Chloro-benzyl)-(4-morpholin-2-yl-phenyl)-amine] were, in that order, 0.0181 µM and 0.0893 µM.
On to `Cc1cc(C2CNCCO2)ccc1Nc1ccc(Br)cn1` (racemic) [Example 76, (RS)-5-Bromo-N-(2-methyl-4-(morpholin-2-yl)phenyl)pyridin-2-amine], for which the Ki on mouse TAAR1 is 0.0024 µM; at rat TAAR1, 0.045 µM.
The like results for `Cc1cc(C2CNCCO2)ccc1Nc1ccc(Cl)cc1` (racemic) [Example 79, (RS)-(4-Chloro-phenyl)-(2-methyl-4-morpholin-2-yl-phenyl)-amine] were, in that order, 0.0047 µM and 0.0716 µM.
The like results for `Cc1cc(C2CNCCO2)ccc1Nc1ccc(Cl)cn1` (racemic) [Example 80, (RS)-(5-Chloro-pyridin-2-yl)-(2-methyl-4-morpholin-2-yl-phenyl)-amine] were, in that order, 0.0026 µM and 0.0626 µM.
The like results for `Cc1cc(C2CNCCO2)ccc1Nc1ncc(Cl)cn1` (racemic) [Example 81, (RS)-(5-Chloro-pyrimidin-2-yl)-(2-methyl-4-morpholin-2-yl-phenyl)-amine] were, in that order, 0.0162 µM and 0.203 µM.
For the compound `Cc1cc(Nc2ccc(C3CNCCO3)cc2C)ncc1Cl` (racemic) [Example 84, (RS)-5-Chloro-4-methyl-N-(2-methyl-4-(morpholin-2-yl)phenyl)pyridin-2-amine], the Ki is 0.0015 µM at mouse TAAR1 and 0.057 µM on rat TAAR1.
Take `Cc1cc(Nc2ccc(C3CNCCO3)cc2C)ncc1Br` (racemic) [Example 85, (RS)-5-Bromo-4-methyl-N-(2-methyl-4-(morpholin-2-yl)phenyl)pyridin-2-amine]: the Ki at mouse TAAR1 amounted to 0.0014 µM; at rat TAAR1, 0.0194 µM.
The like results for `CCc1cnc(Nc2ccc(C3CNCCO3)cc2C)nc1` (racemic) [Example 88, (RS)-5-Ethyl-N-(2-methyl-4-(morpholin-2-yl)phenyl)pyrimidin-2-amine] were, in that order, 0.008 µM and 0.0874 µM.
Regarding `Cc1cc(C2CNCCO2)ccc1Nc1ncc(Br)cn1` (racemic) [Example 89, (RS)-5-Bromo-N-(2-methyl-4-(morpholin-2-yl)phenyl)pyrimidin-2-amine], the Ki on mouse TAAR1 was 0.0139 µM; on rat TAAR1 it was 0.177 µM.
For the compound `Fc1cc(C2CNCCO2)ccc1Nc1ccc(Cl)cn1` (racemic) [Example 99, (RS)-5-Chloro-N-(2-fluoro-4-(morpholin-2-yl)phenyl)pyridin-2-amine], the Ki on rat TAAR1 came out at 0.0185 µM.
Regarding `c1cc(Nc2ccc(C3CNCCO3)cc2)[nH]n1` (racemic) [Example 155, (RS)-(4-Morpholin-2-yl-phenyl)-(1H-pyrazol-3-yl)-amine], the Ki on mouse TAAR1 was 0.6 µM.
For `Brc1cnc(Nc2ccc([C@@H]3CNCCO3)cc2)nc1` [Example 94, (5-Bromo-pyrimidin-2-yl)-((R)-4-morpholin-2-yl-phenyl)-amine], at rat TAAR1, the Ki turned out to be 0.0489 µM.
The same measure, in the same setting: the same measure for `Brc1ccc(Nc2ccc([C@@H]3CNCCO3)cn2)nc1` [Example 108, (R)-5-Bromo-N-(5-(morpholin-2-yl)pyridin-2-yl)pyridin-2-amine]: 0.216 µM.
Still for that read-out and setting: the same measure for `Brc1ccc(Nc2ccc([C@H]3CNCCO3)cn2)nc1` [Example 109, (S)-5-Bromo-N-(5-(morpholin-2-yl)pyridin-2-yl)pyridin-2-amine]: 0.362 µM.
As to `Cc1cc([C@@H]2CNCCO2)ccc1Nc1ncc(C2CC2)cn1` [Example 110, (5-Cyclopropyl-pyrimidin-2-yl)-((R)-2-methyl-4-morpholin-2-yl-phenyl)-amine], the Ki at rat TAAR1 worked out at 0.0306 µM.
The same measure, in the same setting: the same measure for `Cc1cc([C@H]2CNCCO2)ccc1Nc1ncc(C2CC2)cn1` [Example 111, (5-Cyclopropyl-pyrimidin-2-yl)-((S)-2-methyl-4-morpholin-2-yl-phenyl)-amine]: 0.0322 µM; for `Fc1cc([C@@H]2CNCCO2)ccc1Nc1ncc(C2CC2)cn1` [Example 118, (5-Cyclopropyl-pyrimidin-2-yl)-((R)-2-fluoro-4-morpholin-2-yl-phenyl)-amine]: 0.003 µM; for `Fc1cc([C@H]2CNCCO2)ccc1Nc1ncc(C2CC2)cn1` [Example 119, (5-Cyclopropyl-pyrimidin-2-yl)-((S)-2-fluoro-4-morpholin-2-yl-phenyl)-amine]: 0.0051 µM.
On the same count and under the same terms, the same measure for `Fc1cc([C@@H]2CNCCO2)ccc1Nc1ncc(Br)cn1` [Example 126, (5-Bromo-pyrimidin-2-yl)-((R)-2-fluoro-4-morpholin-2-yl-phenyl)-amine]: 0.0096 µM; for `Fc1cc([C@H]2CNCCO2)ccc1Nc1ncc(Br)cn1` [Example 127, (5-Bromo-pyrimidin-2-yl)-((S)-2-fluoro-4-morpholin-2-yl-phenyl)-amine]: 0.0165 µM.
